Laboratory results from patent US8975398B2, “NAMPT inhibitors” (AbbVie Inc., priority 2012, dated 2015).

Experiments:
[1] = target: NAMPT (human, recombinant, C-terminally His-tagged) (Homo sapiens, UniProt P43490); assay: Time-Resolved Fluorescence Resonance Energy Transfer (TR-FRET) Binding Assay of NAMPT; details: 6.8 nM NAMPT, 200 nM probe, equilibrated 3 hours, absence of substrates
Summary of the method: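 Recombinant C-terminally His-tagged human NAMPT (6.8 nM) incubated 3 h at room temperature with 200 nM Oregon Green 488–labelled nicotinamide-competitive probe and 1 nM Tb-anti-His antibody in HEPES pH 7.5, 2% DMSO. TR-FRET ratio Em520/Em495 normalized to controls; IC50 from four-parameter logistic fit.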

NAMPT = NAMPT (Homo sapiens, UniProt P43490); assay: Time-Resolved Fluorescence Resonance Energy Transfer (TR-FRET) Binding Assay of NAMPT with PRPP; details: 2 nM NAMPT, 2 nM probe, 200 uM PRPP and 2.5 mM ATP, equilibrated 16 hours
NAMPT, sequence (P43490 whole entry): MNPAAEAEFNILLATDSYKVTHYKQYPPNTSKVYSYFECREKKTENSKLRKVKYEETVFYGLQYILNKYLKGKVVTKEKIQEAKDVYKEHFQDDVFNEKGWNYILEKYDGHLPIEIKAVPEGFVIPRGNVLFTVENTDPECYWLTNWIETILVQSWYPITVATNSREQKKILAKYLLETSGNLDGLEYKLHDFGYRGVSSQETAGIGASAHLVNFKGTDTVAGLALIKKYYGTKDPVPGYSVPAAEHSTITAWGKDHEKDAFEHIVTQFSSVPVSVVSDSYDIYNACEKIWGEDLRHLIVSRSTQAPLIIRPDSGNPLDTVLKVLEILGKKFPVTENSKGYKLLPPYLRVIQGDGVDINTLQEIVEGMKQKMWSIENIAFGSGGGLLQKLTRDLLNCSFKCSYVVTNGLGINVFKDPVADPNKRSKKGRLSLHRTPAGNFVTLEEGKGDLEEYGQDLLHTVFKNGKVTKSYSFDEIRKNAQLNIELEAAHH
Summary of the method: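 Final mix: 2 nM NAMPT, 2 nM probe, 1 nM Tb-anti-His antibody, 200 uM PRPP, 2.5 mM ATP, 2% DMSO in 1× assay buffer. Equilibrated 16 hours before TR-FRET read, allowing possible enzymatic modification of compounds.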

NAMPT (human, recombinant, C-terminally His-tagged), sequence (P43490 whole entry): as above

| IC50 [1] [nM] | IC50 (NAMPT) [nM] | SMILES |
| --- | --- | --- |
| 42.8 | 0.49 | CCC(C)(C)C(=O)N1CCC(Oc2ccc(NC(=O)C3CN(c4cccnc4)C3)cc2)CC1 [Example 40, N-(4-{[1-(2,2-dimethylbutanoyl)piperidin-4-yl]oxy}phenyl)-1-(pyridin-3-yl)azetidine-3-carboxamide] |
| 3740 | 204 | Cc1ncccc1N1CC(C(=O)Nc2ccc(C3CCN(C(=O)[C@H]4CCC(=O)N4)CC3)cc2)C1 [Example 167, 1-(2-methylpyridin-3-yl)-N-{4-[1-(5-oxo-D-prolyl)piperidin-4-yl]phenyl}azetidine-3-carboxamide] |
| 8.36 | 0.61 | Cn1cccc1C(=O)N1CCC(c2ccc(NC(=O)C3CN(c4cccnc4)C3)cc2)CC1 [Example 128, N-(4-{1-[(1-methyl-1H-pyrrol-2-yl)carbonyl]piperidin-4-yl}phenyl)-1-(pyridin-3-yl)azetidine-3-carboxamide] |
| 360 | 0.812 | CC(=O)N1CCC(Oc2ccc(NC(=O)C3CN(c4cccnc4)C3)cc2)CC1 [Example 56, N-{4-[(1-acetylpiperidin-4-yl)oxy]phenyl}-1-(pyridin-3-yl)azetidine-3-carboxamide] |
| 26.2 | 17.3 | CC(C)C(=O)N1CCC(c2ccc(NC(=O)C3CN(c4ccnnc4)C3)cc2)CC1 [Example 528, N-{4-[1-(2-methylpropanoyl)piperidin-4-yl]phenyl}-1-(pyridazin-4-yl)azetidine-3-carboxamide] |
| 12 | 0.626 | CCC(C)(C)C(=O)N1CCC(c2ccc(NC(=O)C3CN(c4cccnc4)C3)cc2)CC1 [Example 133, N-{4-[1-(2,2-dimethylbutanoyl)piperidin-4-yl]phenyl}-1-(pyridin-3-yl)azetidine-3-carboxamide] |
| 26.4 | 0.611 | CC(C)CC(=O)N1CCC(c2ccc(NC(=O)C3CN(c4cccnn4)C3)cc2)CC1 [Example 320, N-{4-[1-(3-methylbutanoyl)piperidin-4-yl]phenyl}-1-(pyridazin-3-yl)azetidine-3-carboxamide] |
| 987 | 124 | Cc1ncccc1N1CC(C(=O)Nc2ccc(C3CCN(C(=O)CN4CCOCC4)CC3)cc2)C1 [Example 164, 1-(2-methylpyridin-3-yl)-N-{4-[1-(morpholin-4-ylacetyl)piperidin-4-yl]phenyl}azetidine-3-carboxamide] |
| 16.2 | 0.632 | Cc1ccc(C(=O)N2CCC(c3ccc(NC(=O)C4CN(c5cccnn5)C4)cc3)CC2)s1 [Example 377, N-(4-{1-[(5-methylthiophen-2-yl)carbonyl]piperidin-4-yl}phenyl)-1-(pyridazin-3-yl)azetidine-3-carboxamide] |
| 78.2 | 25.3 | O=C(Nc1ccc(OC2CCN(C(=O)CC3CC3)CC2)cc1)C1CN(c2ccnnc2)C1 [Example 293, N-(4-{[1-(cyclopropylacetyl)piperidin-4-yl]oxy}phenyl)-1-(pyridazin-4-yl)azetidine-3-carboxamide] |
| 75.8 | 33.4 | O=C(Nc1ccc(OC2CCN(C(=O)c3ccsc3)CC2)cc1)C1CN(c2ccnnc2)C1 [Example 278, 1-(pyridazin-4-yl)-N-(4-{[1-(thiophen-3-ylcarbonyl)piperidin-4-yl]oxy}phenyl)azetidine-3-carboxamide] |
| 36.9 | 0.334 | O=C(Nc1ccc(C2CCN(C(=O)c3ccc(Cl)c(Cl)c3)CC2)cc1)C1CN(c2cccnn2)C1 [Example 364, N-{4-[1-(3,4-dichlorobenzoyl)piperidin-4-yl]phenyl}-1-(pyridazin-3-yl)azetidine-3-carboxamide] |
| 11.7 | 0.169 | CC[C@H](C)C(=O)N1CCC(c2ccc(NC(=O)C3CN(c4cccnc4)C3)cc2)CC1 [Example 22, N-(4-{1-[(2S)-2-methylbutanoyl]piperidin-4-yl}phenyl)-1-(pyridin-3-yl)azetidine-3-carboxamide] |
